Structures can show the parent of a compound that is named as a salt.
Test: Overall tolerability in the relative bioavailability study
Assay type: in vivo, human
Conditions: doses of 10 mg, 20 mg, 30 mg and single oral dose of 25 mg (1×25 mg tablet); healthy adult subjects under fed conditions
Experimental: Assessments include evaluation of changes in orthostatic hypotension, oral irritation, vital sign assessments, 12-lead electrocardiogram (ECG), and clinical assessments.
After dosing, the following activities were completed: • Both objective and subjective oral irritation assessments were performed immediately after dosing and at one hour after dose administration. • A fast was maintained until at least four hours after dosing. During the study confinement period, fluid consumption resumed no sooner than one hour after dose administration. […] Day 2 • Blood sample collections were obtained as per the profile. • Supine and standing blood pressure and heart rate was measured at approximately 24 hours after each dose. • All subjects were evaluated for the presence of any adverse events prior to release from the study site. • Prior to release, subjects were evaluated to ensure it was safe for them to be released from the study site. • Subjects were released from the study site at approximately 24 hours after dose administration. […]

CCCc1nn(C)c2c(=O)[nH]c(-c3cc(S(=O)(=O)N4CCN(C)CC4)ccc3OCC)nc12 [sildenafil citrate]
tolerability: well tolerated

From patent US9186321B2 (SUDA LIMITED, priority 2011, dated 2015)
